Measurements published in patent publication US8193356B2, “Heterocycle compound, and production process and application thereof” (Aska Pharmaceutical Co., Ltd., priority 2005, dated 2012).

Assays:
[1] = tested on: T1, PDE IV isozyme separated from U937 cultured cell; test: PDE IV inhibitory action; format: biochemical; conditions: cAMP as substrate, 30° C. for 20 minutes, Probit method
T1 construct: PDE IV isozyme separated from U937 cultured cell by an ion exchange chromatography was used
Method: PDE IV isozyme separated from U937 cultured cell by an ion exchange chromatography was used. The PDE IV isozyme was added to ethylene glycol so that the final concentration of the isozyme was 30% by weight, and the solution was stored at −20° C. The stored solution was dissolved in use. The enzyme activity was measured by using cAMP as a substrate.
On the other hand, the test compound was dissolved in dimethylsulfoxide (DMSO) so that the final concentration of the test compound was 1% by weight (2.5 μL/tube), and the resulting solution was named Solution B.
Formulation of the incubation buffer (pH 7.5): Tris-hydrochloric acid (50 mM), magnesium chloride (6 mM), dithiothreitol (2.5 mM), 5-nucleotidase (4 μg/mL), bovine serum albumin (0.23 mg/mL), and cAMP (1 μM)
A mixture of the Solution B of the test compound and the Solution A was incubated at 30° C. for 20 minutes. Then, 1 mL of a slurry of an anion exchange resin (AG1-X8, 200-400 mesh, chloride form; manufactured by Bio-Rad Laboratories, Inc.) was added thereto, and the reaction was stopped by adsorption of an unreacted substrate on the resin.
After the stop of the reaction, the reaction mixture was centrifuged at a centrifugal acceleration of 800×g for 10 minutes, and 250 μL of the resulting supernatant was transferred in a vial. To the vial was added 5 mL of ACS-II (a scintillator manufactured by Amarsham Bioscience), and a [^3H]-adenosine radio activity was measured as a PDE IV activity by a liquid scintillation counter.

[2] = tested on: TNFα production; test: Inhibitory action on galactosamine- and LPS-induced TNFα production; format: in vivo; conditions: mouse, 0.5 mg/kg orally, serum TNFα one hour after galactosamine and LPS i.v., ELISA
Method: A dose (0.5 mg/kg) of the test compound suspended in 0.5% (W/V) CMC-Na aqueous solution was orally administered to a mouse. After one hour, galactosamine (800 mg/kg) and LPS (5 μg/kg) were intravenously administered to induce TNFα production. The amount of TNFα in serum one hour after the administration of galactosamine and LPS was measured by ELISA method.

[3] = target: T2, CYP2D6 (Homo sapiens, UniProt P10635); test: Inhibitory action on drug metabolizing enzyme (CYP2D6/AMMC high throughput inhibitor screening kit); format: in vitro ADME; conditions: CYP2D6 expression system microsome, AMMC substrate, 37° C. for 30 minutes
T2 construct: purchased BD Bioscience
T2 sequence (P10635 whole entry): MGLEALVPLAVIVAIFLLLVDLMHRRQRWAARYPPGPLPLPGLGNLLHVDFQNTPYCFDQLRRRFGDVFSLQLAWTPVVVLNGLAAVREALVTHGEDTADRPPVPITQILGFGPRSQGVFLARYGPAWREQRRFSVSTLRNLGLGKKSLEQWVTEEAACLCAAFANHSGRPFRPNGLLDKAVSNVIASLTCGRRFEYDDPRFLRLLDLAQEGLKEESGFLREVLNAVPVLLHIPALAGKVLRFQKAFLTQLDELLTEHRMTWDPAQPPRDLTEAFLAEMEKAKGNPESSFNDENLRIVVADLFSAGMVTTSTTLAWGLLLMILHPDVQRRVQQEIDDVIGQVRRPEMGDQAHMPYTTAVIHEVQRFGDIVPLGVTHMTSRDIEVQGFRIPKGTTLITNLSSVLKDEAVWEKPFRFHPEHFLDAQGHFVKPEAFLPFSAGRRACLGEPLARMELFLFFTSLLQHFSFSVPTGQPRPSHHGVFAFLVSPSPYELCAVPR
Method: (§1) Inhibitory actions on CYP2D6 and CYP3A4 were measured by using a CYP2D6/AMMC high throughput inhibitor screening kit and a CYP3A4/BFC high throughput inhibitor screening kit (both manufactured by BD Bioscience), respectively. That is, an NADPH generation system, a cofactor, and the test compound were dispersed in a 96-well plate, and AMMC (CYP2D6) and BFC (CYP3A4), which were fluorescent substrates, were added to each well. Further, CYP2D6 expression system microsome and CYP3A4 expression system microsome were added to each well and incubated at 37° C. for 30 minutes. […] Incidentally, as a control substance of this test, roflumilast was used.

[4] = target: T3, CYP3A4 (Homo sapiens, UniProt P08684); test: Inhibitory action on drug metabolizing enzyme (CYP3A4/BFC high throughput inhibitor screening kit); format: in vitro ADME; conditions: CYP3A4 expression system microsome, BFC substrate, 37° C. for 30 minutes
T3 construct: purchased BD Bioscience
T3 sequence (P08684 whole entry): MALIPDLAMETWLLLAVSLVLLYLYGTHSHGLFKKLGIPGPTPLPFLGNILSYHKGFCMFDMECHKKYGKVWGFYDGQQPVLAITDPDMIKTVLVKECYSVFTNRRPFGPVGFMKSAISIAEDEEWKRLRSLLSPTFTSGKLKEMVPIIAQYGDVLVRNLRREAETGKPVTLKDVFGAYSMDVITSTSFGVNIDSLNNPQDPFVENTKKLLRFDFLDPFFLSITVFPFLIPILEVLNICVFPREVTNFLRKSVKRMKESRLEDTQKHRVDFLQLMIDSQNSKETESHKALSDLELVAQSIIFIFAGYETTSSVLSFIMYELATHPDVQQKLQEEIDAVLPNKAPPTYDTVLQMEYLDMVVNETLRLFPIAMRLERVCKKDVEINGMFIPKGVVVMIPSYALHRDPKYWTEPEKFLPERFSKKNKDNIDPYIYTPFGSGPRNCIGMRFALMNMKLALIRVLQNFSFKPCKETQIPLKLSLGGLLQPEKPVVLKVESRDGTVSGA
Method: as §1

Compound	Inhibitory rate (%) of TNFα production in 0.5 mg/kg [2] [%]	melting point [°C]	further results
O=c1c2c(Cc3ccccc3)n[nH]c2c2cccnc2n1-c1cccc(OC(F)(F)F)c1 [Example 1, 3-Benzyl-5-(3-trifluoromethoxyphenyl)-1H-pyrazolo[4,3-c][1,8]-naphthyridin-4(5H)-one]	47	–	IC50 [1]: 0.003 µM
O=c1c2c(Cc3ccccc3C(F)(F)F)n[nH]c2c2cccnc2n1-c1ccccc1 [Example 8, 5-Phenyl-3-(2-trifluoromethylbenzyl)-1H-pyrazolo[4,3-c][1,8]naphthyridin-4(5H)-one]	51	292 to 294	IC50 [1]: 0.003 µM; IC50 [3]: > 10 µM; IC50 [4]: > 10 µM
CC(c1ccccc1)c1n[nH]c2c1c(=O)n(-c1ccccc1)c1ncccc21 (stereo not drawn) [Example 11, 5-Phenyl-3-(1-phenylethyl)-1H-pyrazolo[4,3-c][1,8]naphthyridin-4(5H)-one]	49	–	IC50 [1]: 0.014 µM; IC50 [3]: > 10 µM; IC50 [4]: 8.9 µM
O=C(Nc1c(Cl)cncc1Cl)c1ccc(OC(F)F)c(OCC2CC2)c1 [Roflumilast, reference compound]	50	–	–
O=c1c2c(Cc3ccccc3C(F)(F)F)n[nH]c2c2cccnc2n1-c1cccc(C(F)(F)F)c1 [Example 17, 3-(2-Trifluoromethylbenzyl)-5-(3-trifluoromethylphenyl)-1H-pyrazolo[4,3-c][1,8]naphthyridin-4(5H)-one]	–	260 to 264	–
Cc1ccc2c3[nH]nc(Cc4ccccc4)c3c(=O)n(-c3ccccc3)c2n1 (hydrate or solvate) [Example 3, 3-Benzyl-7-methyl-5-phenyl-1H-pyrazolo[4,3-c][1,8]-naphthyridin-4(5H)-one]	–	300 to 302	–
O=c1c2c(Cc3ccsc3)n[nH]c2c2cccnc2n1-c1cccc(OC(F)(F)F)c1 [Example 46, 3-(3-Thienylmethyl)-5-(3-trifluoromethoxyphenyl)-1H-pyrazolo[4,3-c][1,8]-naphthyridin-4(5H)-one]	–	247 to 251	–
O=c1c2c(Cc3cccc(C(F)(F)F)c3)n[nH]c2c2cccnc2n1-c1ccccc1 [Example 9, 5-Phenyl-3-(3-trifluoromethylbenzyl)-1H-pyrazolo[4,3-c][1,8]naphthyridin-4(5H)-one]	–	303 to 305	–
O=c1c2c(Cc3ccccc3Cl)n[nH]c2c2cccnc2n1-c1cccc(C(F)(F)F)c1 (hydrate or solvate) [Example 39, 3-(2-Chlorobenzyl)-5-(3-trifluoromethylphenyl)-1H-pyrazolo[4,3-c][1,8]-naphthyridin-4(5H)-one]	–	276 to 278	–
CCC(c1ccccc1)c1n[nH]c2c1c(=O)n(-c1ccccc1)c1ncccc21 (stereo not drawn) [Example 43, 5-Phenyl-3-(1-phenylpropyl)-1H-pyrazolo[4,3-c][1,8]naphthyridin-4(5H)-one]	–	233 to 235	–
Cc1ccccc1Cc1n[nH]c2c1c(=O)n(-c1cccc(OC(F)(F)F)c1)c1ncccc21 (hydrate or solvate) [Example 34, 3-(2-Methylbenzyl)-5-(3-trifluoromethoxyphenyl)-1H-pyrazolo[4,3-c][1,8]-naphthyridin-4(5H)-one]	–	240 to 242	–
O=c1c2c(Cc3ccc(F)cc3)n[nH]c2c2cccnc2n1-c1cccc(OC(F)(F)F)c1 (hydrate or solvate) [Example 32, 3-(4-Fluorobenzyl)-5-(3-trifluoromethoxyphenyl)-1H-pyrazolo[4,3-c][1,8]-naphthyridin-4(5H)-one]	–	226 to 228	–
CC(c1ccccc1)c1n[nH]c2c1c(=O)n(-c1cccc(C(F)(F)F)c1)c1ncccc21 (stereo not drawn) [Example 42, 3-(1-Phenylethyl)-5-(3-trifluoromethylphenyl)-1H-pyrazolo[4,3-c][1,8]naphthyridin-4(5H)-one]	–	235 to 237	–
O=c1c2c(Cc3ccccc3)n[nH]c2c2cccnc2n1-c1cccc(C(F)(F)F)c1 [Example 2, 3-Benzyl-5-(3-trifluoromethylphenyl)-1H-pyrazolo[4,3-c][1,8]-naphthyridin-4(5H)-one]	55	–	IC50 [1]: 0.007 µM
O=c1c2c(Cc3cccc(C(F)(F)F)c3)n[nH]c2c2cccnc2n1-c1cccc(OC(F)(F)F)c1 [Example 24, 5-(3-Trifluoromethoxyphenyl)-3-(3-trifluoromethylbenzyl)-1H-pyrazolo[4,3-c][1,8]naphthyridin-4(5H)-one]	–	206 to 209	–
